Laboratory results published in patent publication US20250129102A1, “CRYSTAL FORM OF PYRIMIDINE HETEROCYCLIC COMPOUND AND PREPARATION METHOD THEREFOR” (D3 Bio (Wuxi) Co., Ltd., priority 2021, published 2025).
Where two headings read alike, the source gives them in different places.

Key:
[1] = tested on: KRAS^G12C-mutated MIA-PA-CA-2 cells; test: cells; conditions: Homo sapiens, MIA PaCa-2, 72 h
Method: The main reagent used in this assay included CellTiter-Glo (Promega, Cat. No. G7573).
The main instrument used in this assay was PerkinElmer EnVision multi-function microplate reader.
The fluorescence value was read by EnVision. • 6) Data analysis: The inhibition rate of cells in each well was calculated according to the following equation:
Y=Bottom+(Top−Bottom)/(1+10^((Log IC50−X)*HillSlope))

[2] = tested on: KRAS^G12C-mutated H358 cells; test: cells; conditions: Homo sapiens, NCI-H358, 120 h, read-out: NCI-H358 IC50
Method: The main instrument used in this assay was a Nivo multi-label analyzer (PerkinElmer).
The assay was carried out in duplicate. 78 μL of medium was added to the intermediate plate, and then 2 μL of the serially diluted compound was transferred to each well of the intermediate plate according to the corresponding position. After mixing well, 20 μL per well was transferred to the cell plate. […] The cell plate was incubated in a carbon dioxide incubator for 5 days. Another cell plate was prepared, and the signal value of the cell plate was read on the day of compound addition as the maximum value (Max value in the equation below) to participate in data analysis. 25 μL of cell viability chemiluminescence detection reagent was added to each well of the cell plate, and the plate was incubated at room temperature for 10 minutes to stabilize the luminescence signal. A multi-label analyzer was used for reading the plate. • 3) 25 μL of cell viability chemiluminescence detection reagent was added to each well of the cell plate, and the plate was incubated at room temperature for 10 minutes to stabilize the luminescence signal. A multi-label analyzer was used for reading the plate.

[3] = Stability in whole blood, cynomolgus monkeys; format: in vitro ADME; conditions: 5 μM, 37° C.
Method: Stabilities of the assay compound in whole blood of CD-1 mice, SD rats, beagle dogs and cynomolgus monkeys were assayed, respectively. On the day of the assay or the day before the assay, fresh whole blood from CD-1 mice, SD rats, beagle dogs, and cynomolgus monkeys was collected using anticoagulant EDTA-K2. Prior to the start of the assay, the whole blood was mixed with PBS in 1:1 (v: v) and the mixture was preheated in a 37° C. water bath for 10 to 20 minutes. 96-well incubation plates were prepared and named T0, T30, T60, […], respectively. In the corresponding incubation plates, including T0, T30, T60 and […] incubation plates, 2 μL of working solutions of the compound or the control compound were mixed with 98 μL of blank whole blood of mice, rats, canines, monkeys and human in duplicate. All samples were incubated in a 37° C. water bath. The final incubation concentration of the compound was 5 μM and the final incubation concentration of the control compound was 2 μM. At the end of incubation for each time point, the corresponding incubation plate was removed and 100 μL of ultrapure water was immediately added to the corresponding sample wells, and mixed well. 800 μL of a solution of 200 ng/mL tolbutamide and labetalol in acetonitrile was added to precipitate the protein. […] 150 μL of supernatant was taken out and analyzed by LC/MS/MS.

[4] = Protein binding rate in plasma by equilibrium dialysis, human; format: in vitro ADME; conditions: 2 μM, equilibrium dialysis 4 hours
Method: Protein binding rate of the assay compound in plasma of CD-1 mice, SD rats, beagle dogs, cynomolgus monkeys and human was determined by equilibrium dialysis. Plasma samples with a compound concentration of 2 μM were prepared using plasma of the above five species, placed in a 96-well equilibrium dialysis device, and dialyzed with phosphate buffer solution at 37±1° C. for 4 hours. Warfarin was used as the control compound in this assay. The concentrations of the assay compound in plasma and dialysis buffer were determined by LC-MS/MS method.

[5] = Pharmacokinetics by oral administration and intravenous injection in SD rats; format: in vivo; conditions: for Area under the plasma concentration-time curve, AUCu: AUC0-last × PPB(Unbound %); for Vd: SD, iv, 2 mg/kg; for AUC(0-t): read-out: Area under the plasma concentration-time curve, AUC0-last
Method: • 1) Assay on the pharmacokinetics of the assay compound by oral administration and intravenous injection in SD rats
The assay compound was mixed with 5% o dimethyl sulfoxide/95% o (10% hydroxypropyl-β-cyclodextrin) solution. The mixture was vortexed and sonicated to prepare a 1 mg/mL clear solution, which was filtered through a microporous membrane for later use. Male SD rats aged 7 to 10 weeks were selected, and administered candidate compound solutions intravenously or orally. Whole blood was collected for a certain period of time, and prepared to obtain plasma. Drug concentration was analyzed by LC-MS/MS method, and pharmacokinetic parameters were calculated by Phoenix WinNonlin software (Pharsight, USA).

Question: With C=C(F)C(=O)N1CCN(c2nc(OC[C@@]34CCCN3C[C@H](F)C4)nc3c2CO[C@H](c2c(F)c(N)cc(C)c2C(F)(F)F)C3)C[C@@H]1CC#N [Compound of formula (I)] as the compound, how does the IC50 [1] read?
Answer: Its IC50 is 0.44 nM.

Question: What about the IC50 [2] of the same compound?
Answer: The IC50 was 0.6 nM.

Question: And the “Detection of assay compound content within 240 min” value [3]?
Answer: Its value is 77%.

Question: And the “Protein unbound rate (%)” value [4]?
Answer: Its value is 4.8%.

Question: What about the “Area under the plasma concentration-time curve, AUCu” value ([5]; intravenous injection, 2.0 mg/kg) of the same compound?
Answer: Its value is 0.0313 µM·h.

Question: And the Vd ([5]; male, rat, plasma, intravenous injection, 2.0 mg/kg, Vdss/PPB(Unbound %), read-out: Apparent volume of distribution, Vdss, u)?
Answer: Its Vd is 221 L/kg.

Question: What about the Vd ([5]; male, rat, plasma, intravenous injection, 2.0 mg/kg, read-out: Apparent volume of distribution, Vdss) of the same compound?
Answer: Its Vd is 10.6 L/kg.

Question: And the AUC(0-t) ([5]; male, rat, plasma, intravenous injection, 2.0 mg/kg)?
Answer: Its AUC(0-t) is 0.653 µM·h.

Question: And the clearance ([5]; male, rat, plasma, intravenous injection, 2.0 mg/kg, read-out: Clearance rate, CL)?
Answer: Its clearance is 71.5 mL/min/kg.

Question: What about the half-life ([5]; male, rat, plasma, intravenous injection, 2.0 mg/kg, read-out: Half-life time, T1/2 (converted)) of the same compound?
Answer: The half-life was 1.9 h.

Question: What about the AUC(0-t) ([5]; male, rat, plasma, oral administration, 9.8 mg/kg) of the same compound?
Answer: Its AUC(0-t) is 0.995 µM·h.

Question: And the bioavailability ([5]; male, rat, plasma, oral administration, 9.8 mg/kg, read-out: Bioavailability F (%))?
Answer: The bioavailability was 30.5%.

Question: What about the Cmax ([5]; male, rat, plasma, oral administration, 9.8 mg/kg, read-out: Peak concentration, Cmax) of the same compound?
Answer: The Cmax was 220 nM.

Question: What about the Tmax ([5]; male, rat, plasma, oral administration, 9.8 mg/kg, read-out: Time-to-peak, Tmax) of the same compound?
Answer: The Tmax was 1.5 h.

Question: What about the “Area under the plasma concentration-time curve, AUCu” value ([5]; oral administration, 9.8 mg/kg) of the same compound?
Answer: Its value is 0.0478 µM·h.

Question: What about the “Peak concentration, Cmax, u” value ([5]; oral administration, 9.8 mg/kg, Cmax × PPB(Unbound %)) of the same compound?
Answer: The value was 10.6 nM.
